Measurements published in publication PMC6429356, “Development of Anthraquinone Analogues as Phosphoglycerate Mutase 1 Inhibitors” (Molecules, 2019).

Key:
PGAM1 = target: T1, PGAM1 (Homo sapiens, UniProt P18669); experiment: PGAM1 enzymatic assay (enolase-pyruvate kinase-LDH coupled, OD 340 nm); assay type: biochemical; conditions: for inhibition at 10 µM: 10 μM compound, mean ± s.d. (n = 2); for IC50: optimized enzymatic assay, mean ± s.d. (n = 3)
T1 construct: His6 (C); made in house
Protocol: (§1) Firstly, 1 μL inhibitor in dimethyl sulfoxide (DMSO) incubated with 49 μL 4.6 nM recombinant PGAM1, then 50 μL enzyme mix containing 3 units/mL enolase (Sigma-Aldrich, Saint Louis, MO, USA), 3 units/mL recombinant pyruvate kinase M2 (Sigma-Aldrich), 0.6 units/mL recombinant lactatdehydrogenase (LDH, Sigma-Aldrich), 100 mM Tris-HCl, 100 mM KCl, 5 mM MgCl2, 1 mM adenosine diphosphate (ADP), 0.2 mM the reduced form of nicotinamide adenine dinucleotide (NADH) and 4 mM 3PG was added. PGAM1 activity was measured as the decrease in OD at 340 nm. In addition, we performed a counter screening in which 4mM 2PG was added to 50 μL reaction mix containing the indicated inhibitor, 3 units/mL enolase (Sigma-Aldrich), 3 units/mL recombinant pyruvate kinase M2 (Sigma-Aldrich), 0.6 units/mL recombinant LDH (Sigma-Aldrich), 100 mM Tris-HCl, 100 mM KCl, 5 mM MgCl2, 1 mM ADP and 0.2 mM NADH. The other three enzyme activity was measured as the decrease in OD at 340 nm.

[1] = tested on: enolase-pyruvate kinase-LDH; experiment: Counter screening: control linked enzyme assay with 2PG; assay type: biochemical; conditions: 0.5 μM compound, pyruvate kinase M2, LDH without PGAM1, mean ± s.d. (n = 2)
Protocol: as §1

H1299 cells = experiment: Cell viability assay (MTT, 72 h), H1299; assay type: cell-based; conditions: Homo sapiens, NCI-H1299, proliferation, mean ± s.d. (n = 3)
Protocol: (§2) The H1299 cell line was obtained from Guangzhou Jenniobio Biotechnology Co., Ltd. (Guangzhou, China), PC9 and A549 cells were gifted from Deng Jiong’s lab in the School of Medicine, Shanghai Jiao Tong University, Shanghai, China). H1299, PC9 cells were cultured in RPMI-1640 medium and A549 cells were cultured in F-12K medium containing 10% fetal bovine serum (FBS), 100 units/mL of Penicillin and 100 μg/mL Streptomycin. In cell viability assays, 2000 H1299 cells, A549 cells or 1000 PC9 cells per well were seeded in 96-well plate. After attachment for 24 h, the cells were treated with indicated inhibitor for 72 h. After incubation with 0.5 mg/mL methylthiazolyldiphenyl-tetrazolium bromide (MTT) for 4 h, cell viability was measured as the OD at 570 nm.

A549 cells = experiment: Cell viability assay (MTT, 72 h), A549; assay type: cell-based; conditions: Homo sapiens, proliferation, mean ± s.d. (n = 3)
Protocol: as §2

PC9 cells = experiment: Cell viability assay (MTT, 72 h), PC9; assay type: cell-based; conditions: Homo sapiens, PC-9, proliferation, mean ± s.d. (n = 3)
Protocol: as §2

T1 sequence (P18669 whole entry): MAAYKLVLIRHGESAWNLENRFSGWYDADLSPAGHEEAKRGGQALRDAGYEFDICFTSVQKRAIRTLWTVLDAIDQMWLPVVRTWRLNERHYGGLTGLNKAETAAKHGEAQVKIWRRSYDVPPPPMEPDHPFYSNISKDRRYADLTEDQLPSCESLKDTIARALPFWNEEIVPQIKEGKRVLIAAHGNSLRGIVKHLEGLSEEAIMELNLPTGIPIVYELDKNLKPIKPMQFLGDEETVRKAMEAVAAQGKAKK

| SMILES | inhibition at 10 µM (PGAM1) | Inhibition in the Control Linked Enzyme Assay (0.5 μM) [1] | IC50 (H1299 cells) | IC50 (PGAM1) | IC50 (A549 cells) | IC50 (PC9 cells) |
| --- | --- | --- | --- | --- | --- | --- |
| CCOC(=O)COc1ccc2c(c1OCC(=O)OCC)C(=O)c1ccccc1C2=O [Compound 6a, diethyl 2,2′-((9,10-dioxo-9,10-dihydroanthracene-1,2-diyl)bis(oxy)) diacetate] | -0.6 ± 1% | – | – | – | – | – |
| O=C(O)COc1ccc2c(c1OCC(=O)O)C(=O)c1ccccc1C2=O [Compound 6b, 2,2′-((9,10-dioxo-9,10-dihydroanthracene-1,2-diyl)bis(oxy)) diacetic acid] | 14.3 ± 5.9% | – | – | – | – | – |
| CCOC(=O)COc1ccc2c(c1O)C(=O)c1ccccc1C2=O [Compound 6c] | 0% | – | – | – | – | – |
| O=C(O)COc1ccc2c(c1O)C(=O)c1ccccc1C2=O [Compound 6d] | 5.5 ± 0.03% | – | – | – | – | – |
| CN(C)C(=O)COc1ccc2c(c1O)C(=O)c1ccccc1C2=O [Compound 6e, 2-((1-hydroxy-9,10-dioxo-9,10-dihydroanthracen-2-yl)oxy)-N,N-dimethylacetamide] | 20.2 ± 2.2% | – | – | – | – | – |
| O=C1c2ccccc2C(=O)c2c1cc(NS(=O)(=O)c1ccc(C(F)(F)F)cc1)c(O)c2O [Compound 9a, N-(3,4-Dihydroxy-9,10-dioxo-9,10-dihydroanthracen-2-yl)-4-(trifluoromethyl) benzenesulfonamide] | – | 8.0 ± 5.0% | 20.7 ± 0.6 µM | 0.54 ± 0.04 µM | – | – |
| O=C1c2ccccc2C(=O)c2c1cc(NS(=O)(=O)c1ccc([N+](=O)[O-])cc1)c(O)c2O [Compound 9b, N-(3,4-Dihydroxy-9,10-dioxo-9,10-dihydroanthracen-2-yl)-4-nitrobenzenesulfonamide] | – | −2.9 ± 0.3% | 25.8 ± 2.2 µM | 0.47 ± 0.08 µM | – | – |
| O=C1c2ccccc2C(=O)c2c1cc(NS(=O)(=O)c1ccccc1OC(F)(F)F)c(O)c2O [Compound 9d, N-(3,4-Dihydroxy-9,10-dioxo-9,10-dihydroanthracen-2-yl)-2-(trifluoromethoxy) benzenesulfonamide] | – | – | 13.9 ± 3.6 µM | 2.2 ± 0.5 µM | 17 ± 4.9 µM | 44.2 ± 1.5 µM |
| N#Cc1ccc(S(=O)(=O)Nc2cc3c(c(O)c2O)C(=O)c2ccccc2C3=O)cc1 [Compound 9e, 4-Cyano-N-(3,4-dihydroxy-9,10-dioxo-9,10-dihydroanthracen-2-yl) benzenesulfonamide] | – | 6.7 ± 0.2% | 26.3 ± 4.5 µM | 0.61 ± 0.12 µM | – | – |
| O=C1c2ccccc2C(=O)c2c1cc(NS(=O)(=O)c1ccc(F)cc1)c(O)c2O [Compound 9f, N-(3,4-Dihydroxy-9,10-dioxo-9,10-dihydroanthracen-2-yl)-4-fluorobenzenesulfonamide] | – | 5.7 ± 0.7% | 24.2 ± 2.6 µM | 0.54 ± 0.07 µM | – | – |
| O=C1c2ccccc2C(=O)c2c1cc(NS(=O)(=O)c1ccccc1F)c(O)c2O [Compound 9g, N-(3,4-Dihydroxy-9,10-dioxo-9,10-dihydroanthracen-2-yl)-2-fluorobenzenesulfonamide] | – | 10.2 ± 3.0% | 31.3 ± 1.9 µM | 0.79 ± 0.04 µM | – | – |
| O=C1c2ccccc2C(=O)c2c1cc(NS(=O)(=O)c1cccc(F)c1F)c(O)c2O [Compound 9h, N-(3,4-Dihydroxy-9,10-dioxo-9,10-dihydroanthracen-2-yl)-2,3-difluorobenzenesulfonamide] | – | 0.06 ± 0.4% | 45.7 ± 2.7 µM | 0.89 ± 0.13 µM | – | – |
| O=C1c2ccccc2C(=O)c2c1cc(NS(=O)(=O)c1ccc(Cl)cc1Cl)c(O)c2O [Compound 9j, 2,4-Dichloro-N-(3,4-dihydroxy-9,10-dioxo-9,10-dihydroanthracen-2-yl) benzenesulfonamide] | – | −2.0 ± 5.1% | 23.7 ± 1.1 µM | 0.28 ± 0.07 µM | – | – |
| O=C1c2ccccc2C(=O)c2c1cc(NS(=O)(=O)c1c(Cl)cccc1Cl)c(O)c2O [Compound 9k, 2,6-Dichloro-N-(3,4-dihydroxy-9,10-dioxo-9,10-dihydroanthracen-2-yl) benzenesulfonamide] | – | 0.5 ± 3.2% | 34.6 ± 2.4 µM | 0.89 ± 0.33 µM | – | – |
| O=C1c2ccccc2C(=O)c2c1cc(NS(=O)(=O)c1ccc(Br)cc1)c(O)c2O [Compound 9m, 4-Bromo-N-(3,4-dihydroxy-9,10-dioxo-9,10-dihydroanthracen-2-yl) benzenesulfonamide] | – | −0.1 ± 2.5% | 28.1 ± 1.9 µM | 0.26 ± 0.02 µM | – | – |
| O=C1c2ccccc2C(=O)c2c1cc(NS(=O)(=O)c1ccccc1Br)c(O)c2O [Compound 9n, 2-Bromo-N-(3,4-dihydroxy-9,10-dioxo-9,10-dihydroanthracen-2-yl) benzenesulfonamide] | – | 6.1 ± 0.8% | 50 ± 0.6 µM | 0.2 ± 0.04 µM | – | – |
| O=C1c2ccccc2C(=O)c2c1cc(NS(=O)(=O)c1cccc(Br)c1)c(O)c2O [Compound 9o, 3-Bromo-N-(3,4-dihydroxy-9,10-dioxo-9,10-dihydroanthracen-2-yl) benzenesulfonamide] | – | 7.7 ± 0.2% | 24.5 ± 0.2 µM | 0.35 ± 0.005 µM | – | – |
| O=C1c2ccccc2C(=O)c2c1cc(NS(=O)(=O)c1ccccc1I)c(O)c2O [Compound 9q, 2-Iodo-N-(3,4-dihydroxy-9,10-dioxo-9,10-dihydroanthracen-2-yl) benzenesulfonamide] | – | −2.3 ± 2.4% | 26.4 ± 3.8 µM | 0.26 ± 0.03 µM | – | – |
| CCOC(=O)COc1cc(NS(=O)(=O)c2ccc(Cl)cc2)c2c(c1O)C(=O)c1ccccc1C2=O [Compound 12, ethyl 2-((4-((4-chlorophenyl)sulfonamido)-1-hydroxy-9,10-dioxo-9,10-dihydroanthracen-2-yl)oxy) acetate] | 10% | – | – | – | – | – |
| O=C(O)COc1cc(NS(=O)(=O)c2ccc(Cl)cc2)c2c(c1O)C(=O)c1ccccc1C2=O [Compound 13, 2-((4-((4-chlorophenyl)sulfonamido)-1-hydroxy-9,10-dioxo-9,10-dihydroanthracen-2-yl)oxy) acetic acid] | 34% | – | – | – | – | – |
| CCOC(=O)COc1c(NS(=O)(=O)c2ccc(Cl)cc2)cc2c(c1O)C(=O)c1ccccc1C2=O [Compound 14a, ethyl 2-((3-((4-chlorophenyl)sulfonamido)-1-hydroxy-9,10-dioxo-9,10-dihydroanthracen-2-yl)oxy) acetate] | – | – | – | > 10 µM | – | – |
| O=C(O)COc1c(NS(=O)(=O)c2ccc(Cl)cc2)cc2c(c1O)C(=O)c1ccccc1C2=O [Compound 14b, 2-((3-((4-chlorophenyl)sulfonamido)-1-hydroxy-9,10-dioxo-9,10-dihydroanthracen-2-yl)oxy) acetic acid] | – | – | – | > 10 µM | – | – |
| COc1c(NS(=O)(=O)c2ccc(Cl)cc2)cc2c(c1O)C(=O)c1ccccc1C2=O [Compound 14c, 4-chloro-N-(4-hydroxy-3-methoxy-9,10-dioxo-9,10-dihydroanthracen-2-yl) benzene-sulfonamide] | – | – | 26.9 ± 2.1 µM | 2.92 ± 0.11 µM | – | – |
| COc1c(N(C)S(=O)(=O)c2ccc(Cl)cc2)cc2c(c1O)C(=O)c1ccccc1C2=O [Compound 14d, 4-chloro-N-(4-hydroxy-3-methoxy-9,10-dioxo-9,10-dihydroanthracen-2-yl)-N-methyl-benzenesulfonamide] | – | – | 10.3 ± 0.8 µM | 7.01 ± 0.92 µM | 9.9 ± 0.2 µM | 49.1 ± 1.9 µM |
| O=C1c2ccccc2C(=O)c2c1cc1c(c2O)OCCN1S(=O)(=O)c1ccc(Cl)cc1 [Compound 14e, 4-((4-chlorophenyl)sulfonyl)-12-hydroxy-3,4-dihydro-2H-anthra[2,3-b][1,4]-oxazine-6,11-dione] | – | – | – | > 10 µM | – | – |
| NNC(=O)COc1c(NS(=O)(=O)c2ccc(Cl)cc2)cc2c(c1O)C(=O)c1ccccc1C2=O [Compound 14f, 4-chloro-N-(3-(2-hydrazinyl-2-oxoethoxy)-4-hydroxy-9,10-dioxo-9,10-dihydroanthracen-2-yl) benzenesulfonamide] | – | – | > 100 µM | 2 ± 0.2 µM | – | – |
| CS(=O)(=O)Oc1c(NS(=O)(=O)c2ccc(Cl)cc2)cc2c(c1O)C(=O)c1ccccc1C2=O [Compound 14g, 3-((4-chlorophenyl)sulfonamido)-1-hydroxy-9,10-dioxo-9,10-dihydroanthracen-2-yl methanesulfonate] | – | – | 28.5 ± 0.6 µM | > 10 µM | – | – |
